Values of other authors as cited in US9877959B2, “Pharmaceutical composition containing palonosetron” (SAMYANG BIOPHARMACEUTICALS CORPORATION, priority 2013, dated 2018).

Key:
[1] = in vivo
5-HT3 receptor = target: T1, 5-HT3 receptor (Homo sapiens, UniProt P46098); settings: relative to first-generation 5-HT3 receptor antagonists
T1 sequence (P46098 24-478): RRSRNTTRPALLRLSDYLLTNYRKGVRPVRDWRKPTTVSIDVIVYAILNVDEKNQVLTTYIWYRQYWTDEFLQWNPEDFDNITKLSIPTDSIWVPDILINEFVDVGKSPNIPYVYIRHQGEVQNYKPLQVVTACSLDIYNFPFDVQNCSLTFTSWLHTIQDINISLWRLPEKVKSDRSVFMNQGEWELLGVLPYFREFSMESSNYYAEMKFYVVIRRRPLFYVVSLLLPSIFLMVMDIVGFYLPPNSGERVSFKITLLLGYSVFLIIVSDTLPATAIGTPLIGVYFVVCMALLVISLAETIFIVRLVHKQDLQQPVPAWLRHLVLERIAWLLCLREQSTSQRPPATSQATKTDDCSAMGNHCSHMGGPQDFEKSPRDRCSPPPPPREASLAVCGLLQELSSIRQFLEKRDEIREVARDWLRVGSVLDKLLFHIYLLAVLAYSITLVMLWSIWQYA

- half-life [1]: ≥ 40 h
- inhibitory effect on delayed vomiting, higher than that of other first-generation 5-HT3 receptor antagonists (5-HT3 receptor): 10 times
SMILES: O=C1c2cccc3c2C(CCC3)CN1C1CN2CCC1CC2 (stereo in doubt) [palonosetron, (3aS)-2-[(3S)-1-azabicyclo[2.2.2]oct-3-yl]-2,3,3a,4,5,6-hexahydro-1H-benz[de]isoquinolin-1-one]
